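GI50 = concentration required for 50% inhibition of growth. TGI: total growth inhibition.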
Legend:
Assay in all cases: NCI tumour cell line growth inhibition, 384-well format
A498 renal = system: A498 renal
ACHN renal = system: ACHN renal
DU-145 prostate = system: DU-145 prostate
HOP-62 NSCLC = system: HOP-62 NSCLC
HT29 colon = system: HT29 colon
MDA-MB-468 breast = system: MDA-MB-468 breast
PC-3 prostate = system: PC-3 prostate
RXF 393 renal = system: RXF 393 renal
SF-539 CNS = system: SF-539 CNS
SK-MEL-28 melanoma = system: SK-MEL-28 melanoma
SK-OV-3 ovarian = system: SK-OV-3 ovarian
SNB-75 CNS = system: SNB-75 CNS
T-47D breast = system: T-47D breast

Compound	GI50 (A498 renal) [µM]	TGI (A498 renal) [µM]	GI50 (ACHN renal) [µM]	TGI (ACHN renal) [µM]	GI50 (DU-145 prostate) [µM]	TGI (DU-145 prostate) [µM]	GI50 (HOP-62 NSCLC) [µM]	TGI (HOP-62 NSCLC) [µM]	GI50 (HT29 colon) [µM]	TGI (HT29 colon) [µM]	GI50 (MDA-MB-468 breast) [µM]	TGI (MDA-MB-468 breast) [µM]	GI50 (PC-3 prostate) [µM]	TGI (PC-3 prostate) [µM]	GI50 (RXF 393 renal) [µM]	TGI (RXF 393 renal) [µM]	GI50 (SF-539 CNS) [µM]	TGI (SF-539 CNS) [µM]	GI50 (SK-MEL-28 melanoma) [µM]	TGI (SK-MEL-28 melanoma) [µM]	other results
Cc1ccc(-c2nc(N)nc3c2nnn3Cc2cccc(CO[C@H]3CCOC3)n2)o1	> 100	> 100	> 100	> 100	> 100	> 100	> 100	> 100	> 100	> 100	35.5	99	> 100	> 100	97.4	> 100	> 100	> 100	> 100	> 100	GI50 (SK-OV-3 ovarian): > 100 µM; TGI (SK-OV-3 ovarian): > 100 µM; GI50 (SNB-75 CNS): > 100 µM; TGI (SNB-75 CNS): > 100 µM; GI50 (T-47D breast): 32.4 µM; TGI (T-47D breast): > 100 µM
Cc1cc(-c2nnc(N)nc2-c2ccc(F)cc2)cc(Cl)n1	> 100	> 100	> 100	> 100	> 100	> 100	> 82.1	> 100	> 100	> 100	16.6	68.3	> 73.2	> 100	28.5	> 100	> 100	> 100	> 100	> 100	GI50 (SK-OV-3 ovarian): > 100 µM; TGI (SK-OV-3 ovarian): > 100 µM; GI50 (SNB-75 CNS): > 100 µM; TGI (SNB-75 CNS): > 100 µM; GI50 (T-47D breast): 35.7 µM; TGI (T-47D breast): > 100 µM
